Series [1] deals with T1, HER2 (Homo sapiens, UniProt P04626). The series can be described thus: Inhibition of phosphorylation of receptor tyrosine in human breast cancer cells (1), T-47D, heregulin-stimulated. It counts as cell-based. The method, then: (§1) Human breast cancer cell line T-47D was cultured for 7 days in the medium containing 0.1% bovine fetus albumin instead of serum to deprive the medium of estrogen. On the 7th day, 1,000 μl of the cell suspension (250,000 cells) was seeded in each well of the 24-well plates. The culture were incubated at 37° C. in a 5% carbon dioxide gas incubator. On the next day, 100 μl of the 10-fold serial dilution of each compound solution was added to each well and, 2 hours later, 0.5 μg/ml of heregulin was added to it. After 5 minutes the extract solution was added to it to terminate the reaction, and the protein fraction was extracted. To the extract was added an antibody against the human receptor type oncogene HER2 to precipitate the human receptor type oncogene HER2 protein by the reaction of immunoprecipitation. The precipitate was fractionated by the protein electrophoresis. The protein in the electrophoretic gel was transferred to a nylon filter. The filter was allowed to react with the phosphorylated tyrosine-specific antibody. The reaction product was fluorescence-labeled to expose a photofilm. The intensity of the exposure on the photofilm was quantitated by an image-analyzing apparatus. The proportion of the phosphorylation of HER2 tyrosine in the cells added with a compound solution of each concentration was calculated designating the phosphorylation of HER2 tyrosine in the heregulin-added cells as 100%.
T1 sequence (P04626 23-1255): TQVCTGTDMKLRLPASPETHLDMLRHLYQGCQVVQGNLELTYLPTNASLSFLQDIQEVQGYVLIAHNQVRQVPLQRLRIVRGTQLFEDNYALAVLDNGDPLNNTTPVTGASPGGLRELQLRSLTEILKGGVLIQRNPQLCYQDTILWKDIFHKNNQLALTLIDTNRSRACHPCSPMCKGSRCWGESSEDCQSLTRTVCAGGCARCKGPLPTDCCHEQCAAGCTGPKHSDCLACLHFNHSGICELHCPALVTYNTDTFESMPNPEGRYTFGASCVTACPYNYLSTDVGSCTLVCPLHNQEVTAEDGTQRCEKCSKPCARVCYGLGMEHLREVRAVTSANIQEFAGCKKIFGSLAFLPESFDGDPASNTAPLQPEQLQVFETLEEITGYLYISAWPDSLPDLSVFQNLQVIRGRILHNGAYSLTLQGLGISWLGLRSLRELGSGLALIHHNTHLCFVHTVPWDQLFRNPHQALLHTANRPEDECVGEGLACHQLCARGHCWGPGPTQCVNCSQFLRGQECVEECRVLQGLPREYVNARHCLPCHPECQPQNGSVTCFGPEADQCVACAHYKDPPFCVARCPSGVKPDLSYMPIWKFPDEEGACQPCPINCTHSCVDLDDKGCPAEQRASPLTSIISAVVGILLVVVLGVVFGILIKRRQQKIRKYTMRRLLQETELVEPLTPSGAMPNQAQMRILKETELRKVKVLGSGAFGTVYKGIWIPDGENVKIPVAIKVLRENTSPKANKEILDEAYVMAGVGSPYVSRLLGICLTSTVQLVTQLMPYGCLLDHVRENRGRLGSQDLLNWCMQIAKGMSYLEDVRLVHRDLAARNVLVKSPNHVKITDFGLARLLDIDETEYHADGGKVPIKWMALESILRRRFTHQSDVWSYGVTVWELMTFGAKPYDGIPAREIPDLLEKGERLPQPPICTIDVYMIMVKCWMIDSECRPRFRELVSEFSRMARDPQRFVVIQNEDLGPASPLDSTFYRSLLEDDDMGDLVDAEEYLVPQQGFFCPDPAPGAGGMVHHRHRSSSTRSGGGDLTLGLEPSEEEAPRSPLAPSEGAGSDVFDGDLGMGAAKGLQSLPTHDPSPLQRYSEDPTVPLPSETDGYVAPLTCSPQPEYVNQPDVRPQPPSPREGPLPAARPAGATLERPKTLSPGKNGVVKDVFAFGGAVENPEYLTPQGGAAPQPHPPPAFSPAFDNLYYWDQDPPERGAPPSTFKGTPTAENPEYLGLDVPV

A short description of series [2]: Body weights of mice during the in vivo tumor experiments. More on the design: species or system Balb/C strain athymic nude mice. The method, then:
5,000,000 cells of human breast cancer cell line, MDA-MB-453, were suspended in a gelmatrix solution. The suspension was subcutaneously implanted at the breast in 7-week-old female Balb/C strain athymic nude mice (Friedman R. et al., Proceedings of the National Academy of Sciences of the U.S.A. Vol. 87, pp.6698-6702, 1990). Twelve days after the implantation, the diameters of tumors were determined. For the experiment were used 5 mice per group with similar tumor size. […] On the day when the dosing was ended, the diameters of tumors were measured. Tumor volume was calculated by the following formula: volume of tumor=longest diameter×shortest diameter×shortest diameter×1/2. […] The body weights of mice administered with Compound 8 of the present invention were measured during the experiment to observe no decrease.
5,000,000 cells of human breast cancer cell line, MDA-MB-453, were suspended in a gelmatrix solution. […] Twelve days after the implantation, the diameters of tumors were determined. […] On the day when the dosing was ended, the diameters of tumors were measured. Tumor volume was calculated by the following formula: volume of tumor=longest diameter×shortest diameter×shortest diameter×1/2. […] The body weights of mice administered with compounds of the present invention were measured during the experiment to observe no decrease. […]

The target of series [3] is T1, HER2. The series can be described thus: Inhibition of phosphorylation of receptor tyrosine in human breast cancer cells (2), MCF-7, heregulin-stimulated. The following applies: heregulin control = 100%, read-out: Phosphorylation of receptor tyrosine residue (%). It counts as cell-based. The arrangement: Human breast cancer cell line MCF-7 was used; endogenous in cells; host or cells: MCF-7. The method, then: as §1, with “MCF-7” for “T-47D”, “used.” for “cultured for 7 days in the medium containing 0.1% bovine fetus albumin instead of serum to deprive the medium of estrogen. On the 7th day,”, “The” for “To the extract was added an antibody against the human receptor type oncogene HER2 to precipitate the human receptor type oncogene HER2”, “protein” for “protein by the reaction of immunoprecipitation. The precipitate”

The text below walks through data of patent US6211215A, “Heterocyclic compounds, their production and use” (Takeda Chemical Industries, Ltd., priority 1996, dated 2001).

On to `C(=C\c1nc(COc2ccc(CCCn3ccnc3)cc2)co1)/c1ccccc1` [Compound 8, 4-[4-[3-(1-imidazolyl)propyl]phenoxymethyl]-2-[(E)-2-phenylethenyl]oxazole], for which the activity at 0.4 µM on HER2 [1] (T47D, 0.4 μM, heregulin control = 100%, read-out: Phosphorylation of the tyrosine residue (%)) was 62%; on HER2 [3] (MCF7, 0.4 μM) it was 67%. Moreover, the activity at 1.6 µM on HER2 [1] (T47D, 1.6 μM, heregulin control = 100%, read-out: Phosphorylation of the tyrosine residue (%)) came to 52%; at HER2 [3] (MCF7, 1.6 μM), 41%. In addition, the activity at 6.3 µM turned out to be 33% at HER2 [1] (T47D, 6.3 μM, heregulin control = 100%, read-out: Phosphorylation of the tyrosine residue (%)) and 32% at HER2 [3] (MCF7, 6.3 μM). For the same compound, the activity at 25 µM was 20% on HER2 [1] (T47D, 25 μM, heregulin control = 100%, read-out: Phosphorylation of the tyrosine residue (%)) and 30% on HER2 [3] (MCF7, 25 μM). Further, the “Inhibition of receptor tyrosine phosphorylation” value at HER2 [1] (heregulin) was “inhibit dose-dependently the phosphorylation reaction of the tyrosine residue in the receptor protein”. Moreover, the “Body weight change” value is reported as “no decrease” in series [2] (Test Example 8, MDA-MB-453-bearing mice) and “no decrease” in series [2] (Test Example 11, LNCaP-bearing mice, oral 30 mg/kg twice daily 21 days).
